In patent EP4763837A1, “PHOTOCHROMIC COMPOUND, CURABLE COMPOSITION, OPTICAL ARTICLE, LENS, AND EYEGLASSES” (TOKUYAMA CORPORATION, priority 2023, dated 2025):
Several values for one entry are separate records, joined by “and”; a condition that tells them apart may be missing. Equal entries are not always repeated.

What was measured:
Assay type in all cases: physicochemical
[1] = Photochromic property of photochromic cured product made by kneading method; details: for Residual ratio: A96/A0 x 100 after 96 hours accelerated degradation, xenon weather meter X25; for Color developing density at 23°C: absorbance difference after 240 seconds irradiation at the maximum absorption wavelength of the same line
[2] = Solubility of photochromic compound in polymerizable compounds; parameters: key: 1: No haze is seen when checked under transmission of light, and the sample is completely dissolved.; 2: A very thin haze is seen to the extent that it can be seen under transmission of light.; 3: A thin haze that can be seen under transmission of light is seen.; 4: A haze can be seen even without transmission of light; details: 35 µmol/g in radical polymerizable compound composition of Example 21, 65 to 70°C; for Dissolution for 15 min / Dissolution for 30 min / Dissolution for 45 min: stirring and ultrasonic irradiation; for Dissolution for 1 hour: head reads 60 min in Tables 8 to 14
Procedure, shortened: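 Photochromic compound was added to the radical polymerizable portion of a curable composition and dissolved at 65 to 70°C under stirring and intermittent ultrasonication. The sample was inspected visually by transmitted light every 15 minutes up to 1 h and scored 1 (fully dissolved, no haze) to 4 (haze visible without transmitted light). Solubility was ranked by the time taken to reach score 1.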

[3] = Photochromic property of binder sheet (photochromic layer made by binder method); details: for Residual ratio: A96/A0 x 100 after 96 hours accelerated degradation, xenon weather meter X25; for Color developing density at 23°C: absorbance difference after 240 seconds irradiation at the maximum absorption wavelength of the same line
Protocol: The resulting photochromic laminates were evaluated by the below-mentioned methods. • (1) Photochromic property • [1] Maximum absorption wavelength (λmax): This is the maximum absorption wavelength after color development determined by a spectrophotometer manufactured by Otsuka Electronics Co., Ltd. (instantaneous multichannel photo detector MCPD3000) and was used as an index of a color tone upon color development. • [2] Color developing density at 23°C (A23): This is a difference between an absorbance {ε(240)} after irradiation with light at 23°C for 240 seconds and an absorbance ε(0) when not irradiated with light at the maximum absorption wavelength and was used as an index of a color developing density. The higher this value is, the better a photochromic property is. • [3] Color fading half-life at 23°C [τ1/2 (sec).)]: This is a period of time taken by an absorbance at the maximum absorption wavelength of a sample to decrease to 1/2 of {ε(240)-ε(0)} when irradiation is stopped after irradiation with light at 23°C for 240 seconds, and was used as an index of a color fading rate. The shorter this period of time is, the faster the color fading rate is. • [4] Residual ratio (A96/A0 x 100): The resulting photochromic plastic lens was subjected to accelerated degradation for 96 hours using a xenon weather meter X25 manufactured by Suga Test Instruments Co., Ltd. Color developing densities were then evaluated before and after a test, and a color developing density before the test (A0) and a color developing density after the test (A96) were measured. A ratio (A96/A0) was determined as a residual ratio and was used as an index of color development durability. The higher the residual ratio is, the more durable the color development is.
A binder sheet was produced as follows. The binder sheet was made by laminating a first optical sheet, a first adhesive layer, a photochromic layer, a second adhesive layer, and a second optical sheet in this order. A polycarbonate sheet with a thickness of 400 µm was used as the first optical sheet and the second optical sheet.
A 2 L four-necked flask equipped with a stirring blade, a condense tube, a thermometer, and a nitrogen gas inlet tube was charged with 315 parts by mass of polycarbonate diol with a number average molecular weight of 1000, 100 parts by mass of isophorone diisocyanate, and 72 parts by mass of toluene and reacted under a nitrogen atmosphere at 100°C for 7 hours. Thus, a urethane prepolymer with a terminal isocyanate group was synthesized. After the reaction of the above-mentioned urethane prepolymer was completed, the resulting reaction liquid was cooled to about 0°C and dissolved in 205 parts by mass of tertiary-butyl alcohol and 382 parts by mass of diethyl ketone, and then a temperature of the resulting liquid was kept at 0°C. Next, a mixed solution of 21.3 parts by mass of bis-(4-aminocyclohexyl)methane serving as a chain extender and 20 parts by mass of diethyl ketone was added dropwise thereto within 30 minutes and reacted at 0°C for 1 hour. Then, 8.1 parts by mass of 1,2,2,6,6-pentamethyl-4-aminopiperidine was added dropwise thereto and reacted at 0°C for 1 hour to obtain a solution of a terminal non-reactive urethane urea resin in diethylketone.
One hundred parts by mass of the resulting solution of a terminal non-reactive urethane urea resin, 6.3 parts by mass of Example 1 (a photochromic compound represented by Formula (1-7), an isomer mixture of 4,4'-methylenebis(cyclohexylisocyanate) (polyisocyanate compound)), 0.4 parts by mass of ethylenebis(oxyethylene) bis[3-(5-tert-butyl-4-hydroxy-m-tolyl) propionate] serving as an antioxidant, and 0.06 parts by mass of L-7001 manufactured by DuPont Toray Specialty Materials K.K. serving as a surfactant were added and stirred and mixed at room temperature to obtain a composition for forming a photochromic layer. […]

Structure (SMILES) | Residual ratio [1] | Color developing density at 23°C [1] | Dissolution for 15 min [2] | Dissolution for 30 min [2] | Dissolution for 45 min [2] | Dissolution for 1 hour [2] | Residual ratio [3] | Color developing density at 23°C [3]
CCCCCCCCCCCC1(C)c2ccccc2-c2c1c1c(c3cc(OC)c(N4CCOCC4)cc23)OC(c2ccc(OC)cc2)(c2ccc(OC)cc2)C=C1 (stereo not shown) [Formula (19-1)] | 52% and 55% | – | 2 | 1 | 1 | 1 | 62% and 66% | –
CCCCCCC1(CC)c2ccccc2-c2c1c1c(c3cc(OC)c(N4CCOCC4)cc23)OC(c2ccc(OC)cc2)(c2ccc(OC)cc2)C=C1 (stereo not shown) [Formula (18-1)] | 60% and 61% | – | 3 | 2 | 1 | 1 | 71% and 74% | –
COc1ccc(C2(c3ccc(OC)cc3)C=Cc3c4c(c5cc(N6CCOCC6)c(OC)cc5c3O2)-c2ccccc2C4(C)C)cc1 [Formula (A), reference compound] | 54% and 56% | 1.68 - and 0.85 - | 4 | 3 | 3 | 3 | 63% and 65% | –
CCCC1(CC)c2ccccc2-c2c1c1c(c3cc(OC)c(N4CCOCC4)cc23)OC(c2ccc(OC)cc2)(c2ccc(OC)cc2)C=C1 (stereo not shown) [Formula (14-1)] | 63% and 64% | – | 4 | 2 | 1 | 1 | 75% | –
CCCCC1(CCC)c2ccccc2-c2c1c1c(c3cc(OC)c(N4CCOCC4)cc23)OC(c2ccc(OC)cc2)(c2ccc(OC)cc2)C=C1 (stereo not shown) [Formula (6-2)] | – | – | 4 | 2 | 1 | 1 | 75% and 72% | –

Results, then the compound that gave them:

Residual ratio [1] | Color developing density at 23°C [1] | Dissolution for 15 min [2] | Dissolution for 30 min [2] | Dissolution for 45 min [2] | Dissolution for 1 hour [2] | Residual ratio [3] | Color developing density at 23°C [3] | Structure (SMILES)
40% and 42% | 1.32 - and 0.69 - | 4 | 3 | 1 | 1 | 50% and 51% | 1.32 - and 0.71 - | CCC1(OC)c2ccccc2-c2c1c1c(c3cc(OC)c(N4CCOCC4)cc23)OC(c2ccc(OC)cc2)(c2ccc(OC)cc2)C=C1 (stereo not shown) [Formula (B), reference compound]
79% | 1.20 - | 4 | 2 | 2 | 1 | 93% | 1.19 - | CCC1(C)c2ccccc2-c2c1c1c(c3cc(OC)c(N(C)c4ccccc4)cc23)OC(c2ccc(OC)cc2)(c2ccc(OC)cc2)C=C1 (stereo not shown) [Formula (9-1)]
